For assay [1], the target named is serum amyloid P component (SAP) (Homo sapiens, UniProt P02743). The assay can be described thus: Inhibition of SAP binding to amyloid fibrils in vitro. The conditions noted are these: in vitro inhibition of binding of SAP to amyloid fibrils, protocol of EP 0915088 page 10; read-out: IC50. The source says:
A method for screening and testing inhibitors of serum amyloid P component (SAP) binding to amyloid fibrils in vitro was devised and used in collaboration with F Hoffmann-La Roche Ltd to identify a suitable lead molecule for drug development. A library of candidate compounds was screened accordingly. The subsequent collaborative medicinal chemistry programme led to synthesis of a family of dicarboxylic acid, pyrrolidone ring containing molecules, of which the most studied is (R)-1-[6-(R)-2-Carboxy-pyrrolidin-1-yl]-6-oxo-hexanoyl]pyrrolidine-2-carboxylic acid. This molecule and related compounds (EP-A-0915088) are modestly potent inhibitors of SAP binding to amyloid fibrils in vitro, with IC50 values around 0.5-1.0 μM.
Further studies determined that each of the following bis-D-Proline compounds were tested for their ability to deplete SAP in vivo as described above. Each of the compounds identified below successfully depleted SAP. In addition, certain of the compounds were further tested for in vitro inhibition of binding of SAP to amyloid fibrils in accordance with the protocol provided in EP 0915088 at page 10, as referenced above. The results are shown in the second column below, where applicable.

Assay [2] relates to SAP. As to the kind of experiment: SAP binding to experimentally induced amyloid deposits in mice. It is filed as in vivo, mouse. An excerpt: The potency of (R)-1-[6-(R)-2-Carboxy-pyrrolidin-1-yl]-6-oxo-hexanoyl]pyrrolidine-2-carboxylic acid in vivo was initially considered to be consistent with its lower IC50 value in vitro. However the decameric assembly of pentameric SAP molecules, induced by the cross linking capacity of the palindromic drug, is an abnormal molecular configuration which, according to the present invention, will be recognised in vivo and promptly cleared from the circulation. This action of the drug, leading to massive depletion of SAP from the plasma, makes a critical contribution to removal of SAP from the amyloid deposits because the SAP in amyloid is derived from, and in equilibrium with, the plasma SAP pool.

Assay [3] concerns the target SAP (Homo sapiens, UniProt P02743). The conditions noted are these: known low molecular weight ligands; cited from earlier work.

Chain of serum amyloid P component (SAP) (P02743 20-223): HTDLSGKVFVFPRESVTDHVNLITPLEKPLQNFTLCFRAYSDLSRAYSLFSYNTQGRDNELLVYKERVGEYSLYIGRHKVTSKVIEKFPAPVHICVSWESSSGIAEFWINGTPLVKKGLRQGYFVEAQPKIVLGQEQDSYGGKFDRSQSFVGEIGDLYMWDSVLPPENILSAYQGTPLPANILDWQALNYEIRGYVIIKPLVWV
Chain of SAP (Homo sapiens, UniProt P02743) (P02743 20-223): as above

A word on the IC50: it is the concentration needed to halve the response being measured. Consider `O=C(O)[C@H]1CCCN1C(=O)c1ccc(C(=O)N2CCC[C@@H]2C(=O)O)cc1`, for which the concentration for half-maximal inhibition (IC50) in assay [1] came to 700 nM. As for `O=C(O)[C@H]1CCCN1C(=O)Cc1cccc(CC(=O)N2CCC[C@@H]2C(=O)O)c1`, the IC50 in assay [1] worked out at 700 nM. Consider `Cc1c(OCC(=O)N2CCC[C@@H]2C(=O)O)cccc1OCC(=O)N1CCC[C@@H]1C(=O)O`, for which the concentration for half-maximal inhibition (IC50) in assay [1] turned out to be 500 nM. Take `O=C(O)[C@H]1CCCN1C(=O)COc1ccc(OCC(=O)N2CCC[C@@H]2C(=O)O)cc1`: the IC50 in assay [1] turned out to be 300 nM.

`O=C(O)[C@H]1CCCN1C(=O)Cc1ccc(CC(=O)N2CCC[C@@H]2C(=O)O)cc1`: in assay [1], the 50% inhibitory concentration (IC50) came to 350 nM.

For `O=C(O)[C@H]1CCCN1C(=O)COc1ccccc1OCC(=O)N1CCC[C@@H]1C(=O)O`, in assay [1], the IC50 was determined as 400 nM.

Take `CC(CS)C(=O)N1CCC[C@@H]1C(=O)O` (stereo partly drawn) [1-(3-Mercapto-2-methyl-1-oxopropyl)-D-proline]: in the assay with SAP [2], the “Binding of SAP to experimentally induced amyloid deposits” value is “inhibits binding of SAP” and the “Dissociation of SAP already bound in amyloid deposits” value is “dissociates SAP that is already bound in the deposits”.

Regarding `CO[C@@H]1O[C@@H]2COC(C)(C(=O)O)O[C@@H]2[C@H](O)[C@H]1O` (stereo partly drawn) [MOβDG, methyl 4,6-O-(1-carboxyethylidene)-β-D-galactopyranoside], the “Affinity of binding by SAP” value at SAP [3] was “about millimolar”. As to `NCCOP(=O)(O)O` [phosphoethanolamine], the “Affinity of binding by SAP” value on SAP [3] is “about millimolar”.

These data come from patent US8173694B2, “Therapeutic agent” (Pentraxin Therapeutics Limited, priority 2001, dated 2012).
